{"source": "patent US20220323406A1", "about": "“METHODS AND COMPOSITIONS FOR DIFFERENTIATING STEM CELLS” (Massachusetts Institute of Technology, priority 2019, published 2022)", "key": {"[1]": {"system": "3D-cultured intestinal organoids (ENR or ENR+CD)", "assay": "Lysozyme secretion assay (3D culture), normalized to ATP", "type": "cell-based, mouse", "conditions": "6-day ENR+CD differentiation", "experimental": "Lysozyme assay (3D culture). ISC-enriched organoids cultured in 3D Matrigel with ENRCV media were passaged to 48-well plate in 3D Matrigel with ENRCV. At day zero, media were replaced to ENR or ENRCD with or without indicated compounds, and media were replaced every other day. At day six, cells were washed twice with basal media and treated with carbamylcholine chloride (Sigma, C4382) for 3 hours. Media were collected and lysozyme activity was measured by EnzChek Lysozyme Assay Kit (ThermoFisher, E22013).\nLysozyme secretion assay. ISC-enriched organoids in 3D Matrigel culture were passaged to a 48- or 96-well plate and cultured with ENR or ENR+CD media containing DMSO or each drug for 6 days. DMSO- or drug-containing media were changed every other day. On day 6, cells were washed with basal media twice and treated with basal media with or without 10 μM carbamoylcholine chloride for 3 h in a CO2 incubator at 37° C. A part of the conditioned media was collected and used for lysozyme assay (Thermo, E-22013) following the manufacturer's instruction. The fluorescence was measured using excitation/emission of 485/530 nm. CellTiter-Glo 3D Reagent (Promega, G9681) was added afterward, and the cell culture plate was incubated on an orbital shaker at RT for 30 min to induce cell lysis and to stabilize the luminescent signal. The solution was replaced to a 96-well white microplate, and luminescent signals were measured by a microplate reader (infinite M200, Tecan). The standard curve was prepared by diluting recombinant ATP (Promega, P1132). For both assays, a polynomial cubic curve was fitted to a set of standard data, and each sample value was calculated on the Microsoft Excel."}, "[2]": {"system": "ENR+CD organoids (ISC to Paneth cell differentiation)", "assay": "Primary screen: basal (non-stimulated) lysozyme secretion LYZ.NS, 2.5-D 384-well ENR+CD organoid differentiation", "type": "cell-based, mouse", "conditions": "for primary screen hit call (SSMD and z-scored FC cutoffs in both LYZ assays): LYZ.NS and LYZ.S, 0.08-10 uM, 6 days ENR+CD; for Z.LYZ.NS / Dose.FC.LYZ.NS / Z.LYZ.NS (standard z score): primary screen; for Z.LYZ.NS: standard z score", "from_the_text": "(§1) High-throughput screening."}, "[3]": {"system": "ENR+CD organoids (ISC to Paneth cell differentiation)", "assay": "Primary screen: CCh-stimulated lysozyme secretion LYZ.S, 2.5-D 384-well ENR+CD organoid differentiation", "type": "cell-based, mouse", "conditions": "primary screen", "from_the_text": "as §1"}, "ENR+CD organoids [4]": {"system": "ENR+CD organoids", "conditions": "for Z.CTG: standard z score"}, "[5]": {"system": "ENR+CD organoids (ISC to Paneth cell differentiation)", "assay": "Secondary (validation) screen: LYZ.S CCh-stimulated lysozyme secretion, 2.5-D 384-well ENR+CD organoids", "type": "cell-based, mouse", "conditions": "6-day ENR+CD, vs ENR+CD+DMSO"}, "ENR+CD organoids [6]": {"system": "ENR+CD organoids", "assay": "Secondary (validation) screen: ATP (CTG) assay, 2.5-D 384-well ENR+CD organoids", "type": "cell-based, mouse", "conditions": "6-day ENR+CD, vs ENR+CD+DMSO"}, "[7]": {"system": "ENR+CD organoids (ISC to Paneth cell differentiation)", "assay": "Secondary (validation) screen: LYZ.NS basal lysozyme secretion, 2.5-D 384-well ENR+CD organoids", "type": "cell-based, mouse", "conditions": "6-day ENR+CD, vs ENR+CD+DMSO"}, "[8]": {"conditions": "dose 0.08 uM, FC vs plate median"}, "[9]": {"conditions": "dose 0.40 uM, FC vs plate median"}, "[10]": {"conditions": "dose 2.00 uM, FC vs plate median"}, "[11]": {"conditions": "dose 10.00 uM, FC vs plate median"}}, "note": "Read-outs that look alike come from different tables or passages of the source.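 Wherever Z.CTG (standard z score) is given: compounds given at plating and again on day 3 over a 6-day differentiation from ENR+CV stem-cell-enriched precursors, ATP measured on day 6, plate median as control.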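 Wherever Z.CTG is given: compounds given at plating and again on day 3 over a 6-day differentiation from ENR+CV stem-cell-enriched precursors, ATP measured on day 6, plate median as control.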", "data": [{"smiles": "COc1cc2c(Nc3ccc(NC(=O)c4ccccc4)cc3)ncnc2cc1OCCCN1CCOCC1", "note": "[ZM447439, reference compound]", "values": [{"measurement": "Paneth cell differentiation (functional LYZ secretion), compound alone", "setting": "[1]", "result": "did significantly increase Paneth cell differentiation"}, {"measurement": "primary screen hit call (SSMD and z-scored FC cutoffs in both LYZ assays)", "setting": "[2]", "result": "lower-effect size hit of the primary screen"}]}, {"smiles": "c1ccc2c(CCNc3ccc(Nc4ccncc4)cc3)c[nH]c2c1", "note": "[serdemetan]", "values": [{"measurement": "Paneth cell differentiation (functional LYZ secretion), compound alone", "setting": "[1]", "result": "neither P53 inhibitor altered Paneth cell differentiation"}, {"measurement": "Paneth cell differentiation (functional LYZ secretion), in combination with KPT-330", "setting": "[1]; with KPT-330 (160 nM)", "result": "neither P53 inhibitor altered Paneth cell differentiation"}]}, {"smiles": "C[C@@H]1O[C@@H](O[C@H]2C[C@@H](O)[C@]3(CO)[C@H]4[C@H](O)C[C@]5(C)[C@@H](C6=CC(=O)OC6)CC[C@]5(O)[C@@H]4CC[C@]3(O)C2)[C@H](O)[C@H](O)[C@H]1O", "note": "[Ouabain]", "values": [{"measurement": "Dose.FC.LYZ.S", "setting": "[3]; [8]", "result": 0.040, "unit": "log2 fold change"}, {"measurement": "Dose.FC.LYZ.S", "setting": "[3]; [9]", "result": 0.035, "unit": "log2 fold change"}, {"measurement": "Dose.FC.LYZ.S", "setting": "[3]; [10]", "result": 0.003, "unit": "log2 fold change"}, {"measurement": "Dose.FC.LYZ.S", "setting": "[3]; [11]", "result": 0.050, "unit": "log2 fold change"}, {"measurement": "Z.LYZ.NS", "setting": "[2]; dose 0.08 uM", "result": "−0.025"}, {"measurement": "Z.LYZ.NS", "setting": "[2]; dose 0.40 uM", "result": 0.315}, {"measurement": "Z.LYZ.NS", "setting": "[2]; dose 2.00 uM", "result": 0.092}, {"measurement": "Z.LYZ.NS", "setting": "[2]; dose 10.00 uM", "result": 1.433}, {"measurement": "Dose.FC.LYZ.NS", "setting": "[2]; [8]", "result": "−0.003", "unit": "log2 fold change"}, {"measurement": "Dose.FC.LYZ.NS", "setting": "[2]; [9]", "result": 0.036, "unit": "log2 fold change"}, {"measurement": "Dose.FC.LYZ.NS", "setting": "[2]; [10]", "result": 0.011, "unit": "log2 fold change"}, {"measurement": "Dose.FC.LYZ.NS", "setting": "[2]; [11]", "result": 0.165, "unit": "log2 fold change"}, {"measurement": "Dose.FC.CTG", "setting": "ENR+CD organoids [4]; 10 µM", "result": "−0.288", "unit": "log2 fold change"}, {"measurement": "Z.CTG", "setting": "ENR+CD organoids [4]; primary screen, dose 0.08 uM", "result": 0.023}, {"measurement": "Z.CTG", "setting": "ENR+CD organoids [4]; primary screen, dose 0.40 uM", "result": 0.290}, {"measurement": "Z.CTG", "setting": "ENR+CD organoids [4]; primary screen, dose 2.00 uM", "result": 0.190}, {"measurement": "Z.CTG", "setting": "ENR+CD organoids [4]; primary screen, dose 10.00 uM", "result": "−0.688"}, {"measurement": "Dose.FC.CTG", "setting": "ENR+CD organoids [4]; primary screen, dose 0.08 uM, FC vs plate median", "result": 0.010, "unit": "log2 fold change"}, {"measurement": "Dose.FC.CTG", "setting": "ENR+CD organoids [4]; primary screen, dose 0.40 uM, FC vs plate median", "result": 0.122, "unit": "log2 fold change"}, {"measurement": "Dose.FC.CTG", "setting": "ENR+CD organoids [4]; primary screen, dose 2.00 uM, FC vs plate median", "result": 0.080, "unit": "log2 fold change"}]}, {"smiles": "CCc1c(C(=O)C(N)=O)c2c(OCC(=O)O)cccc2n1Cc1ccccc1", "note": "[Varespladib (LY315920), Varespladib, reference compound]", "values": [{"measurement": "Dose.FC.LYZ.S", "setting": "[5]; 0.02 uM", "result": "−0.138", "unit": "log2 fold change"}, {"measurement": "Dose.FC.LYZ.S", "setting": "[5]; 0.04 uM", "result": "−0.044", "unit": "log2 fold change"}, {"measurement": "Dose.FC.LYZ.S", "setting": "[5]; 0.08 uM", "result": 0.065, "unit": "log2 fold change"}, {"measurement": "Dose.FC.LYZ.S", "setting": "[5]; […]", "result": 0.102, "unit": "log2 fold change"}, {"measurement": "Dose.FC.LYZ.S", "setting": "[3]; dose 0.08 uM", "result": 0.274, "unit": "log2 fold change"}, {"measurement": "Dose.FC.LYZ.S", "setting": "[3]; dose 0.40 uM", "result": 0.157, "unit": "log2 fold change"}, {"measurement": "Dose.FC.LYZ.S", "setting": "[3]; dose 2.00 uM", "result": 0.176, "unit": "log2 fold change"}, {"measurement": "Dose.FC.LYZ.S", "setting": "[3]; dose 10.00 uM", "result": 0.051, "unit": "log2 fold change"}, {"measurement": "Dose.FC.CTG", "setting": "ENR+CD organoids [6]; 0.02 uM", "result": 0.027, "unit": "log2 fold change"}, {"measurement": "Dose.FC.CTG", "setting": "ENR+CD organoids [6]; 0.04 uM", "result": 0.113, "unit": "log2 fold change"}, {"measurement": "Dose.FC.CTG", "setting": "ENR+CD organoids [6]; 0.08 uM", "result": 0.207, "unit": "log2 fold change"}, {"measurement": "Dose.FC.CTG", "setting": "ENR+CD organoids [6]; […]", "result": 0.148, "unit": "log2 fold change"}, {"measurement": "Dose.FC.LYZ.NS", "setting": "[7]; 0.02 uM", "result": "−0.091", "unit": "log2 fold change"}, {"measurement": "Dose.FC.LYZ.NS", "setting": "[7]; 0.04 uM", "result": 0.015, "unit": "log2 fold change"}, {"measurement": "Dose.FC.LYZ.NS", "setting": "[7]; 0.08 uM", "result": 0.090, "unit": "log2 fold change"}, {"measurement": "Dose.FC.LYZ.NS", "setting": "[7]; […]", "result": 0.156, "unit": "log2 fold change"}, {"measurement": "primary screen hit call (SSMD and z-scored FC cutoffs in both LYZ assays)", "setting": "[2]", "result": "sole hit in their respective pathway"}, {"measurement": "Dose.FC.LYZ.NS", "setting": "[2]; dose 0.08 uM", "result": 0.176, "unit": "log2 fold change"}, {"measurement": "Z.LYZ.NS (standard z score)", "setting": "[2]; dose 0.08 uM", "result": 1.533}, {"measurement": "Dose.FC.LYZ.NS", "setting": "[2]; dose 0.40 uM", "result": 0.197, "unit": "log2 fold change"}, {"measurement": "Z.LYZ.NS (standard z score)", "setting": "[2]; dose 0.40 uM", "result": 1.719}, {"measurement": "Dose.FC.LYZ.NS", "setting": "[2]; dose 2.00 uM", "result": 0.164, "unit": "log2 fold change"}, {"measurement": "Z.LYZ.NS (standard z score)", "setting": "[2]; dose 2.00 uM", "result": 1.430}, {"measurement": "Dose.FC.LYZ.NS", "setting": "[2]; dose 10.00 uM", "result": 0.074, "unit": "log2 fold change"}, {"measurement": "Z.LYZ.NS (standard z score)", "setting": "[2]; dose 10.00 uM", "result": 0.643}, {"measurement": "Dose.FC.CTG", "setting": "ENR+CD organoids [4]; primary screen, dose 0.08 uM", "result": 0.428, "unit": "log2 fold change"}, {"measurement": "Z.CTG (standard z score)", "setting": "ENR+CD organoids [4]; primary screen, dose 0.08 uM", "result": 1.022}, {"measurement": "Dose.FC.CTG", "setting": "ENR+CD organoids [4]; primary screen, dose 0.40 uM", "result": 0.362, "unit": "log2 fold change"}, {"measurement": "Z.CTG (standard z score)", "setting": "ENR+CD organoids [4]; primary screen, dose 0.40 uM", "result": 0.864}, {"measurement": "Dose.FC.CTG", "setting": "ENR+CD organoids [4]; primary screen, dose 2.00 uM", "result": 0.152, "unit": "log2 fold change"}, {"measurement": "Z.CTG (standard z score)", "setting": "ENR+CD organoids [4]; primary screen, dose 2.00 uM", "result": 0.363}, {"measurement": "Dose.FC.CTG", "setting": "ENR+CD organoids [4]; primary screen, dose 10.00 uM", "result": 0.241, "unit": "log2 fold change"}, {"measurement": "Z.CTG (standard z score)", "setting": "ENR+CD organoids [4]; primary screen, dose 10.00 uM", "result": 0.575}]}]}
